Assay type in all cases: physicochemical
Data set [1] can be described thus: Dynamic bulk density (fluidisability) of salmeterol xinafoate powders. Conditions: powder. How it is done:
The dynamic bulk density (W) is indicative of a substance's fluidisability and is defined as: [formula]
where P is the packed bulk density (g.cm^−3), A is the aerated bulk density (g.cm^−3) and C is the compressibility (%) where C is calculated by the equation: [formula]
Conventionally crystallised salmeterol xinafoate, both before and after micronisation, was compared against salmeterol xinafoate made by the supercritical fluid method described herein. A solution of salmeterol xinafoate in acetone (0.63% w/v) was co-introduced with CO2 at 300 bar and 45° C. via a coaxial nozzle into the particle formation vessel using the apparatus described and shown in FIG. 1 to give sample 1. A solution of salmeterol xinafoate in acetone (0.50% w/v) was cointroduced with CO2 at 100 bar and 55° C. via a coaxial nozzle into the particle formation vessel using the apparatus described and shown in FIG. 1 to give sample 2. In each case, the solution flow rate was 0.4 ml/min and supercritical CO2 was co-introduced into the particle formation vessel at a flow rate of 9 ml/min.
The dynamic bulk densities are shown below in Table 2: […]

Data set [2] is described as follows: Particle size analysis by laser diffraction (Malvern Mastersizer E), Example 3. How it is done: A solution of salmeterol xinafoate in acetone (0.6% w/v) was co-introduced with CO2 at 200 bar and 55° C. via a coaxial nozzle into the particle formation vessel using the apparatus described and shown in FIG. 1. A series of products was obtained by changing the flow rate ratio of salmeterol xinafoate solution/supercritical CO2, where the flow ratio is defined as: [formula]
The flow ratio was changed between 0.01 and 0.07, with a flow rate of 9 ml/min for the supercritical CO2.
The resultant dry, easily handlable products without significant static charge were examined by scanning electron microscopy (SEM) and by laser diffraction (Malvern Mastersizer E) for particle size analysis (see FIGS. 12-15).
The uniformity index is defined as: [formula]

Data set [3] is described as follows: Relative static charge: drug remaining coated to vial walls after rolling. Conditions: after rolling drug in vial for 5 minutes. The procedure: Using samples prepared as described in Example 1, a simple test was devised to determine their relative static charge based on the quantity of drug remaining coated to the walls of a vial after rolling a predetermined quantity of drug in the vial for 5 minutes. The greater the drug remaining on the vial, the higher the relative static charge associated with the drug substance.

Data set [4] can be described thus: Reproducibility: particle size and distribution by laser diffraction (Malvern Mastersizer), Example 11. The conditions noted are these: 300 bar, 35° C., acetone 0.6% w/v; for Mean Particle Size: two different days. How it is done:
Two different solutions of salmeterol xinafoate in acetone (0.6% w/v) were made and each solution was co-introduced with CO2 via a coaxial nozzle into the particle formation vessel using the apparatus described on two different days to give samples A and B. The operating conditions were 300 bar and 35° C., with flow rates of 0.2 ml/min for the salmeterol solution and 6 ml/min for the supercritical CO2. The crystallised salmeterol xinafoate provided from each solution was examined for particle size and size distribution.

The nature of data set [5]: Scanning electron microscopy of particles. The conditions noted are these: SEM; needle shaped particles from isopropanol (0.2% w/v), 150 bar, 60° C. How it is done: In another experiment, a solution of salmeterol xinafoate in isopropanol (0.2% w/v) was co-introduced with CO2 at 150 bar and 60° C. via a coaxial nozzle into the particle formation vessel using the apparatus described and shown in FIG. 1. The dry, easily handlable product without significant static charge was examined by SEM (see FIG. 16) and found to be composed of needle shaped particles with a maximum particle dimension of up to 300 microns. Thus by controlling and changing the working conditions of the particle formation process, salmeterol xinafoate products composed of particles with different particle sizes and size distributions were produced.

Take `OCc1cc(C(O)CNCCCCCCOCCCCc2ccccc2)ccc1O` (stereo not shown) [conventionally crystallised salmeterol xinafoate (non-micron] [reference compound]: the “Dynamic Bulk Density W” value in data set [1] stood at 0.312 g · cm^−3.

Turning to `OCc1cc(C(O)CNCCCCCCOCCCCc2ccccc2)ccc1O` (stereo not shown) [Conventionally crystallised salmeterol xinafoate (micronised] [reference compound], in data set [2], the “% < 5 μm” value is on record as over 90%, the “% < 10 μm” value is on record as over 95%, the “Mean Particle Size” value is 1-3 μm and the Uniformity index is given as 13.1. Also, in data set [1], the “Dynamic Bulk Density W” value stood at 0.137 g · cm^−3. In addition, in data set [3], the “% Drug Retaining on Vial” value is reported as 7.0%.

For the molecule `OCc1cc(C(O)CNCCCCCCOCCCCc2ccccc2)ccc1O` (single isomer, unassigned) [Sample B, salmeterol xinafoate], in data set [4], the “% < 5 microns” value is 28.3%, the “% < 10 microns” value came out at 64.5%, the “Uniformity index” value is reported as 9 and the “Mean Particle Size” value was 7.7 Microns.

Consider `OCc1cc(C(O)CNCCCCCCOCCCCc2ccccc2)ccc1O` (stereo not shown) [SCF salmeterol xinafoate (sample 2), salmeterol xinafoate], for which, in data set [2], the “% < 5 μm” value amounted to 5.7%, the “% < 10 μm” value was 16.1%, the “Mean Particle Size” value worked out at 18.84 μm and the Uniformity index is given as 19.2. For the same molecule, in data set [1], the “Dynamic Bulk Density W” value is recorded as 0.059 g · cm^−3. The “% Drug Retaining on Vial” value in data set [3] (sample 2) is on record as 5.7%.

In the case of `OCc1cc(C(O)CNCCCCCCOCCCCc2ccccc2)ccc1O` (stereo not shown) [SCF salmeterol xinafoate (sample 1), salmeterol xinafoate], in data set [2], the “% < 5 μm” value is 66.0%, the “% < 10 μm” value was determined as 94.5%, the “Mean Particle Size” value was 3.85 μm and the Uniformity index came to 10.2. In addition, the “Dynamic Bulk Density W” value in data set [1] is 0.033 g · cm^−3. Moreover, the “% Drug Retaining on Vial” value in data set [3] (sample 1) was found to be 2.5%.

`OCc1cc(C(O)CNCCCCCCOCCCCc2ccccc2)ccc1O` (stereo not drawn) [salmeterol xinafoate, 4-hydroxy-α^1-[[[6-(4-phenylbutoxy)hexyl]amino]methyl]-1,3-benzenedimethanol (salmeterol) 1-hydroxy-2-naphthalenecarboxylate (xinafoate)]: in data set [5], the maximum particle dimension result is on record as “up to 300 microns”.

With `OCc1cc(C(O)CNCCCCCCOCCCCc2ccccc2)ccc1O` (single isomer, unassigned) [Sample A, salmeterol xinafoate], in data set [4], the “% < 5 microns” value worked out at 31.6%, the “% < 10 microns” value is reported as 67.8%, the “Uniformity index” value is listed as 9 and the “Mean Particle Size” value is reported as 7.2 Microns.

For the origin of these results see patent publication US6613307B1, “Aerosol formulations of salmeterol xinafoate” (SmithKline Beecham Corporation, priority 1998, dated 2003).
